Assay results reported in patent publication US20060198832A1, “Peptide drugs for chronic lymphocytic leukemia (CLL) and other cancers” (priority 2004, published 2006).
Bridges are numbered along the chain shown (N, C = ends). Roman numbers before positions name the chains, in order. Where no end group is shown, it is not given here.

Tests used:
[1] = system: chronic lymphocytic leukemia (CLL) cells; test: viability/apoptosis of CLL cells electroporated with peptides (Annexin V-FITC/PI flow cytometry); format: cell-based, human
Description: Peripheral blood mononuclear cells (PBMC) from patients with chronic lymphocytic leukemia (CLL) were obtained from the CLL Research Consortium (CRC) tissue bank. Briefly, heparinized peripheral blood was obtained from patients diagnosed with B-CLL according to standard criteria (Chenson et al., Blood 87:4990-4997 (1996)). Lymphocytes were isolated by Ficoll density-gradient centrifugation and verified by immunofluorescence flow cytometry to be composed of greater than 95% CD5/CD19/CD23 triple positive B cells. […] CLL cells were electroporated with a dimethyl sulfoxide (DMSO) control or peptides essentially as described in […] et al., J. Immunol. Methods 275:41-56 (2003), and […] et al., Cancer Res. 63:1242-1248 (2003). For evaluation of apoptosis, at least 5×10^5 cells were recovered by centrifugation and double-stained with Annexin V-FITC, an early marker of apoptosis, and propidium iodide (PI), a nucleic acid-binding vital dye, followed by flow-cytometric analysis using the FL-1 and FL-3 channels of a Becton Dickinson flow cytometer (FACSort; San Jose, Calif.).

GST-Bcl2(1-205) = biological target: T1, GST-Bcl2(1-205) (Homo sapiens, UniProt P10415); test: competition ELISA for binding of BAD peptides to Bcl-2; settings: FIG. 1
T1 construct: 50 ng GST-Bcl2(1-205; Santa Cruz Biotechnology; Santa Cruz, Calif.); purchased Santa Cruz Biotechnology
Procedure: To determine binding affinity to Bcl-2, competition ELISA assays were performed essentially as described in Cabezas et al., supra, 2001, with the following components. Briefly, acetyl-Cys(biotin-BMCC)-Ahx-Bad peptide (50 ng peptide/50 μl ELISA buffer) was adsorbed to 96-well neutraAvidin coated microtiter plates. Competition peptides were subsequently mixed with 50 ng GST-Bcl2(1-205; Santa Cruz Biotechnology; Santa Cruz, Calif.) in 50 μl ELISA buffer per titer well and incubated for one hour at 37° C. Wells were washed and treated with 50 μl of a 1/4000 dilution of anti-GST Mab 7E5 (from ascites fluid provided by Shinichi Kitada) in ELISA buffer for one hour at 37° C. Quantification of peptide-bound GST-Bcl2/Mab7E5 complex was carried out with alkaline-phosphatase-conjugated goat […] and p-nitrophenylphosphate substrate as described in Cabezas et al., supra, 2001.

697-neo cells = test: cell viability assay in 697-neo cells; format: cell-based; settings: low Bcl-2, FIG. 6
Procedure: (§1) The peptides were tested in cell viability assays essentially as described above in Examples I and II. Experiments were carried out in 697-neo and 697-Bcl-2 cells. 697 cells are from a cell line of preB leukemic cells. 697-Bcl-2 cells have been engineered to express high levels of Bcl-2. AML-349 and AML-728 are myeloblasts (verified by FACS analysis via CD34-positivity) that were isolated from respective patients with acute myelogenous leukemia (AML).

697-Bcl-2 cells = test: cell viability assay in 697-Bcl-2 cells; format: cell-based; settings: 697-Bcl2 cells with higher levels of Bcl-2, FIG. 6 and 7
Procedure: as §1

[2] = system: acute myelogenous leukemia (AML) cells; test: cell viability/apoptosis in patient AML cells; format: cell-based, human
Procedure: as §1

Bcl-2 family Bcl-2/x1 = Bcl-2 family Bcl-2/x1 (Homo sapiens, UniProt P10415); test: binding of penetratin-linked peptides to Bcl-2 (method not described)
Chain of Bcl-2 family Bcl-2/x1 (P10415 1-205): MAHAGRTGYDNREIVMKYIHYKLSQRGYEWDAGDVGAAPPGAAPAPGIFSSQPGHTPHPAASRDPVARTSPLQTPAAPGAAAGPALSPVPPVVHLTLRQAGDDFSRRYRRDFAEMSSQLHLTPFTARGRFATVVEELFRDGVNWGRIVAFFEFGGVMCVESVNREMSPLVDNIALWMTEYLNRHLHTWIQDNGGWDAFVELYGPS

T1 sequence (P10415 1-205): as above

Substance	cell viability (Induction of Apoptosis in CLL Cells), patient sample JCB 178 ([1]; CLL patient sample JCB 178, peptide electroporated)	cell viability (Induction of Apoptosis in CLL Cells), patient sample MA G15 ([1]; CLL patient sample MA G15, peptide electroporated)	cell viability (Induction of Apoptosis in CLL Cells), patient sample TJK 328 ([1]; CLL patient sample TJK 328, peptide electroporated)	cell viability (Induction of Apoptosis in CLL Cells), patient sample TJK 340 #1 ([1]; CLL patient sample TJK 340 #1, peptide electroporated)	cell viability (Induction of Apoptosis in CLL Cells), patient sample TJK 340 #2 ([1]; CLL patient sample TJK 340 #2, peptide electroporated)	cell viability (Induction of Apoptosis in CLL Cells), patient sample TJK 375 ([1]; CLL patient sample TJK 375, peptide electroporated)	cell viability (Induction of Apoptosis in CLL Cells), Av. ([1]; average of the five preceding patient sample columns, peptide electroporated)	cell viability of CLL cells ([1]; electroporated peptide, FIG. 2)	cell viability in all the patient CLL samples ([1]; electroporated peptide, summary of Table 4)	binding affinity for Bcl-2 compared to wild type BAD peptide (GST-Bcl2(1-205))	activity in reducing cell viability (697-neo cells)	amount of peptide needed to kill cells (697-Bcl-2 cells)	induction of apoptosis / killing ([2]; AML cells of patient AML-349, FIG. 9)	induction of apoptosis ([2]; AML cells of patient AML-728, FIG. 8)	binding to Bcl-2 (Bcl-2 family Bcl-2/x1)
NLWAAQRYGRELRRMADEFVDAFKK [SEQ ID NO: 2]	12%	2%	10%	12%	12%	22%	14%	significantly reduced	dramatically reduced	significantly higher binding affinity for Bcl-2 than the wild type BAD peptide					
acetyl-NLWAAQRYGRELRRMADEFVDAFKKC-CRQIKIWFQNRRMKWKK-amide [2335] (peptide 1 Ac-NLWAAQRYGRELRRMADEFVDAFKKC; peptide 2 CRQIKIWFQNRRMKWKK-NH2; disulfide I:26-II:1) [compound 2335, Bad 2Ser/Ala peptide disulfide linked to penetratin-1]											more active in 697-neo cells with low Bcl-2 than a 2336 control peptide	it takes more 2335 to kill 697 cells with higher levels of Bcl-2	induced apoptosis	induced apoptosis	binds Bcl-2
